37 compounds from US9902722B2, “Biaryl kinase inhibitors” (BRISTOL-MYERS SQUIBB COMPANY, priority 2014, dated 2018) can be followed below.

SMILES strings stand for the structures.

Chain of GST-Xa-hAAK1 (Q2M2I8 whole entry): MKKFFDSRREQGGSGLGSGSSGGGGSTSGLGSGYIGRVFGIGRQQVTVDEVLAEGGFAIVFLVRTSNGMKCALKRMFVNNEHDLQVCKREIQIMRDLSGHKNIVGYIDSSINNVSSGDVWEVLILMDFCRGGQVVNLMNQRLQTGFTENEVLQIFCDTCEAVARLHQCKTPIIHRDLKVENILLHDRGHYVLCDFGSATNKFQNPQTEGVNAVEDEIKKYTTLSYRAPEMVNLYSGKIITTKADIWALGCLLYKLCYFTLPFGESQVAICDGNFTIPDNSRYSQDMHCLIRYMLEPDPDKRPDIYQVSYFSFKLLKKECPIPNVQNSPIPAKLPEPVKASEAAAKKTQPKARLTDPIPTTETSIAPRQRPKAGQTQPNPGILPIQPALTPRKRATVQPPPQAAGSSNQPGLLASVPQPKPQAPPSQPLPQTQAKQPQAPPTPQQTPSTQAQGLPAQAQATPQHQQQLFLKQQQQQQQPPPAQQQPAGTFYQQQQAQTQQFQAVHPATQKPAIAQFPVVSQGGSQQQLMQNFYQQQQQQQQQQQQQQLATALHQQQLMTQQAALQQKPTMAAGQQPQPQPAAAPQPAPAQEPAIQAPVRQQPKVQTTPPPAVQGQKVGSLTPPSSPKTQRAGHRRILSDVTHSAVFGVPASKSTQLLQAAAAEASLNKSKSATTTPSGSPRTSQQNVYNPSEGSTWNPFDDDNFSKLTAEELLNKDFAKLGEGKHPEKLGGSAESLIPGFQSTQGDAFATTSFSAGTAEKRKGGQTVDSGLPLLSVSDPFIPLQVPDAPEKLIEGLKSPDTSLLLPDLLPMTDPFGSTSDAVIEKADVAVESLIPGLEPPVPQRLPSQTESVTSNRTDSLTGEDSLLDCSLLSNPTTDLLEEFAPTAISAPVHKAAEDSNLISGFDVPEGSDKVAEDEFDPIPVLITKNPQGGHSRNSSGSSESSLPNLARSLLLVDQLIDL

The experiment concerns the target GST-Xa-hAAK1 (Homo sapiens (Human), UniProt Q2M2I8). As to the kind of experiment: AAK1 Kinase Assay.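 Further: each compound tested across an eleven-point concentration series, with IC50 obtained through non-linear regression fitting.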 Conditions: bacterially expressed GST-Xa-hAAK1 3.5 nM; ATP 22 μM; peptide substrate 1.5 μM; 3 hours at room temperature; Caliper LabChip 3000. It is filed as biochemical.
In general, IC50 refers to the midpoint of a concentration-inhibition curve. A higher IC50 goes with lower potency. In turn, `Cc1cc(-c2ccc(OC[C@@H](N)CC(C)C)c(C#N)c2)cnn1` [Example 109, (S)-2-((2-amino-4-methylpentyl)oxy)-5-(6-methylpyridazin-4-yl)benzonitrile] yielded a 50% inhibitory concentration (IC50) of 340 nM.

In the case of `CC(C)C[C@@](C)(N)COc1ccc(-c2ccnc(C(F)F)c2)nc1C(F)F` [Example 174, (R)-1-((2′,6-bis(difluoromethyl)-[2,4′-bipyridin]-5-yl)oxy)-2,4-dimethylpentan-2-amine], inhibition was half-maximal at 54 nM (IC50).

In turn, `CC(C)C[C@](C)(N)COc1cnc(-c2ccnc3ccccc23)cc1C(F)F` [Example 121, (S)-1-((4-(difluoromethyl)-6-(quinolin-4-yl)pyridin-3-yl)oxy)-2,4-dimethylpentan-2-amine] had an IC50 of 0.3 nM.

`CC(C)C[C@](C)(N)COc1ccc(-c2ccnc(F)c2)cc1F` [Example 93, (S)-1-(2-fluoro-4-(2-fluoropyridin-4-yl)phenoxy)-2,4-dimethylpentan-2-amine] yielded an IC50 of 33 nM.

The compound `COC(=O)Nc1cc(-c2cc(C(F)F)c(OC[C@@](C)(N)CC(C)C)cn2)ccn1` [Example 120, (S)-methyl (5-((2-amino-2,4-dimethylpentyl)oxy)-4-(difluoromethyl)-[2,4′-bipyridin]-2′-yl)carbamate] had an IC50 of 0.51 nM.

In turn, `CC(C)C[C@](C)(N)COc1cnc(-c2ccnc3ccc(F)cc23)cc1Cl` [Example 235, (S)-1-((4-chloro-6-(6-fluoroquinolin-4-yl)pyridin-3-yl)oxy)-2,4-dimethylpentan-2-amine] had an IC50 of 0.36 nM.

Compound `CC(C)C[C@](C)(N)COc1ccc(-c2ccnc3ccccc23)nc1C(F)F` [Example 118, (S)-1-((2-(difluoromethyl)-6-(quinolin-4-yl)pyridin-3-yl)oxy)-2,4-dimethylpentan-2-amine] registered a 50% inhibitory concentration (IC50) of 0.85 nM.

`COC(=O)Nc1cc(-c2cnc(OC[C@@](C)(N)CC(C)C)c(C(F)F)c2)ccn1` [Example 196, (S)-methyl (6-((2-amino-2,4-dimethylpentyl)oxy)-5-(difluoromethyl)-[3,4′-bipyridin]-2′-yl)carbamate] registered a 50% inhibitory concentration (IC50) of 0.2 nM. This IC50 lies about 4.2-fold lower than the previous one.

For `COC(=O)Nc1cc(-c2ccc(OC[C@](N)(CF)CC(C)C)c(C(F)F)n2)ccn1` [Example 179, (S)-methyl (5-((2-amino-2-(fluoromethyl)-4-methylpentyl)oxy)-6-(difluoromethyl)-[2,4′-bipyridin]-2′-yl)carbamate], the IC50 is 2 nM.

Take `Cc1cc(-c2cc(C(F)F)c(OC[C@@](N)(CF)CC(C)C)cn2)ccn1` [Example 188, (R)-1-((4-(difluoromethyl)-2′-methyl-[2,4′-bipyridin]-5-yl)oxy)-2-(fluoromethyl)-4-methylpentan-2-amine]: the IC50 is 92 nM.

As for `CC(=O)Nc1cc(-c2ccc(OC[C@@H](N)CC(C)C)c(Cl)c2)ccn1` [Example 8, (S)—N-(4-(4-((2-amino-4-methylpentyl)oxy)-3-chlorophenyl)pyridin-2-yl)acetamide], inhibition was half-maximal at 0.53 nM (IC50).

Turning to `CC(C)C[C@H](N)COc1ccc(-c2ccnc(N)c2)cc1C#N` [Example 4, (S)-2-((2-amino-4-methylpentyl)oxy)-5-(2-aminopyridin-4-yl)benzonitrile], the IC50 stood at 2.8 nM.

The compound `CC(C)C[C@](C)(N)COc1ncc(-c2ccnc3ccccc23)cc1C(F)F` [Example 204, (S)-1-((3-(difluoromethyl)-5-(quinolin-4-yl)pyridin-2-yl)oxy)-2,4-dimethylpentan-2-amine] gave a 50% inhibitory concentration (IC50) of 0.23 nM. This IC50 lies about 12-fold lower than the previous one.

On to `Cc1cc(-c2ccnc3ccccc23)ncc1OC[C@@](C)(N)CC(C)C` [Example 82, (S)-2,4-dimethyl-1-((4-methyl-6-(quinolin-4-yl)pyridin-3-yl)oxy)pentan-2-amine], for which it took 0.85 nM to reach half-maximal inhibition (IC50).

Compound `Cc1nc(-c2ccnc3ccccc23)ccc1OC[C@@](C)(N)CC(C)C` [Example 81, (S)-2,4-dimethyl-1-((2-methyl-6-(quinolin-4-yl)pyridin-3-yl)oxy)pentan-2-amine] registered an IC50 of 7.8 nM.

`CC(C)C[C@](C)(N)COc1ccc(-c2ccnc3ccccc23)nc1Cl` [Example 83, (S)-1-((2-chloro-6-(quinolin-4-yl)pyridin-3-yl)oxy)-2,4-dimethylpentan-2-amine] yielded a half-inhibitory concentration (IC50) of 1.8 nM.

In turn, `Cc1cc(-c2ccnc(F)c2)cnc1OC[C@@](C)(N)CC(C)C` [Example 95, (S)-1-((2′-fluoro-5-methyl-[3,4′-bipyridin]-6-yl)oxy)-2,4-dimethylpentan-2-amine] yielded a half-maximal inhibitory concentration (IC50) of 39 nM.

Compound `CC(C)C[C@H](N)COc1ccc(-c2ccnc3ccccc23)cc1-c1ccno1` [Example 110, (S)-1-(2-(isoxazol-5-yl)-4-(quinolin-4-yl)phenoxy)-4-methylpentan-2-amine] yielded an IC50 of 3.5 nM.

As to `Cc1cc(-c2ccnc3cc(F)ccc23)ncc1OC[C@@](C)(N)CC(C)C` [Example 227, (S)-1-((6-(7-fluoroquinolin-4-yl)-4-methylpyridin-3-yl)oxy)-2,4-dimethylpentan-2-amine], the IC50 was determined as 0.93 nM.

Take `COC(=O)Nc1cc(-c2ccc(OC[C@@](C)(N)CC(C)C)c(CN(C)C)c2)ccn1` [Example 112, (S)-methyl (4-(4-((2-amino-2,4-dimethylpentyl)oxy)-3-((dimethylamino)methyl)phenyl)pyridin-2-yl)carbamate]: the IC50 amounted to 970 nM.

With `Cc1cc(-c2cnc(OC[C@@](C)(N)CC(C)C)c(C(F)F)c2)ccn1` [Example 194, (S)-1-((5-(difluoromethyl)-2′-methyl-[3,4′-bipyridin]-6-yl)oxy)-2,4-dimethylpentan-2-amine], the IC50 worked out at 1.5 nM.

For the compound `CC(C)C[C@](C)(N)COc1cnc(-c2ccnc3ccc(Cl)cc23)cc1Cl` [Example 239, (S)-1-((4-chloro-6-(6-chloroquinolin-4-yl)pyridin-3-yl)oxy)-2,4-dimethylpentan-2-amine], inhibition was half-maximal at 0.39 nM (IC50).

Compound `COC(=O)Nc1cc(-c2ccc(OC[C@@](C)(N)CC(C)C)c3ccccc23)ccn1` [Example 208, (S)-methyl (4-(4-((2-amino-2,4-dimethylpentyl)oxy)naphthalen-1-yl)pyridin-2-yl)carbamate] yielded an IC50 of 4.6 nM.

In the case of `COC(=O)Nc1nccc(-c2ccc(OC[C@@](C)(N)CC(C)C)c(C)n2)c1F` [Example 157, (S)-methyl (5-((2-amino-2,4-dimethylpentyl)oxy)-3′-fluoro-6-methyl-[2,4′-bipyridin]-2′-yl)carbamate], inhibition was half-maximal at 19 nM (IC50).

The compound `CC(C)C[C@](C)(N)COc1ccc(-c2ccncc2F)cc1C(F)(F)F` [Example 47, (S)-1-(4-(3-fluoropyridin-4-yl)-2-(trifluoromethyl)phenoxy)-2,4-dimethylpentan-2-amine] registered an IC50 of 0.77 nM.

Turning to `COC(=O)Nc1cc(-c2ccc(OC[C@@H](N)CC(C)C)c(-c3ccno3)c2)ccn1` [Example 14, (S)-methyl (4-(4-((2-amino-4-methylpentyl)oxy)-3-(isoxazol-5-yl)phenyl)pyridin-2-yl)carbamate], half-maximal inhibition (IC50) required 0.87 nM. This IC50 and that of the compound before are within 1.5-fold of each other.

`CC(=O)Nc1cc(-c2ccc(OC[C@@](C)(N)CC(C)C)c(C(F)(F)F)c2)c(CO)cn1` [Example 34, (S)—N-(4-(4-((2-amino-2,4-dimethylpentyl)oxy)-3-(trifluoromethyl)phenyl)-5-(hydroxymethyl)pyridin-2-yl)acetamide] had a concentration for half-maximal inhibition (IC50) of 15 nM.

Regarding `COC(=O)Nc1cc(-c2ccc(OC[C@@](C)(N)CC(C)C)c(S(C)(=O)=O)c2)ccn1` [Example 113, (S)-methyl (4-(4-((2-amino-2,4-dimethylpentyl)oxy)-3-(methylsulfonyl)phenyl)pyridin-2-yl)carbamate], the IC50 came to 43 nM.

On to `Cc1cc(-c2ccnc3ccc(Cl)cc23)ncc1OC[C@@](C)(N)CC(C)C` [Example 229, (S)-1-((6-(6-chloroquinolin-4-yl)-4-methylpyridin-3-yl)oxy)-2,4-dimethylpentan-2-amine], for which the IC50 amounted to 1 nM.

Regarding `CC(C)C[C@@](N)(CF)COc1cnc(-c2ccnc(C(F)F)c2)cc1C(F)F` [Example 184, (S)-1-((2′,4-bis(difluoromethyl)-[2,4′-bipyridin]-5-yl)oxy)-2-(fluoromethyl)-4-methylpentan-2-amine], half-maximal inhibition (IC50) was put at 3.3 nM.

For `COC(=O)Nc1cc(-c2ccc(OC[C@@](C)(N)CC(C)C)c(F)c2)ccn1` [Example 28, (S)-methyl (4-(4-((2-amino-2,4-dimethylpentyl)oxy)-3-fluorophenyl)pyridin-2-yl)carbamate], 1.2 nM corresponded to half-maximal inhibition (IC50).

`COC(=O)Nc1cc(-c2cc(Cl)c(OC[C@@](C)(N)CC(C)C)cn2)ccn1` [Example 237, (S)-methyl (5-((2-amino-2,4-dimethylpentyl)oxy)-4-chloro-[2,4′-bipyridin]-2′-yl)carbamate] gave a half-inhibitory concentration (IC50) of 1.4 nM. This IC50 and that of the compound before are within 1.5-fold of each other.

As for `CC(=O)Nc1cc(-c2ccc(OC[C@@](C)(N)CC(C)C)c(C#N)c2)ccn1` [Example 21, (S)—N-(4-(4-((2-amino-2,4-dimethylpentyl)oxy)-3-cyanophenyl)pyridin-2-yl)acetamide], half-maximal inhibition (IC50) was put at 0.74 nM.

Take `CC(C)C[C@](C)(N)COc1cnc(-c2ccnc3cc(F)cc(F)c23)cc1C(F)F` [Example 130, (S)-1-((4-(difluoromethyl)-6-(5,7-difluoroquinolin-4-yl)pyridin-3-yl)oxy)-2,4-dimethylpentan-2-amine]: the IC50 was 1.4 nM.

With `Cc1cc(-c2cc(C)c(OC[C@@](C)(N)CC(C)C)c(F)n2)ccn1` [Example 107, (S)-1-((6-fluoro-2′,4-dimethyl-[2,4′-bipyridin]-5-yl)oxy)-2,4-dimethylpentan-2-amine], the half-maximal inhibitory concentration (IC50) worked out at 50 nM.

Regarding `CC(C)C[C@](C)(N)COc1cnc(-c2ccnc3cc(F)ccc23)cc1C(F)F` [Example 131, (S)-1-((4-(difluoromethyl)-6-(7-fluoroquinolin-4-yl)pyridin-3-yl)oxy)-2,4-dimethylpentan-2-amine], 0.82 nM corresponded to half-maximal inhibition (IC50). Against the preceding compound, the IC50 is about 61-fold lower.

As for `CC(C)C[C@](C)(N)COc1ncc(-c2ccnc3ccc(F)cc23)cc1Cl` [Example 191, (S)-1-((3-chloro-5-(6-fluoroquinolin-4-yl)pyridin-2-yl)oxy)-2,4-dimethylpentan-2-amine], the 50% inhibitory concentration (IC50) is 0.99 nM.
